pIC50: −log10 of the molar value.
Biological target: Nicotinamide phosphoribosyltransferase (Homo sapiens, UniProt P43490)
Assay: Enzymatic Reaction Assay: The NAMPT enzymatic reactions were carried out in Buffer A (50 mM Hepes pH 7.5, 50 mM NaCl, 5 mM MgCl2, and 1 mM THP) in 96-well V-bottom plates. The compound titrations were performed in a separate dilution plate by serially diluting the compounds in DMSO to make a 100× stock. Buffer A (89 μL) containing 33 nM of NAMPT protein was added to 1 μL of 100× compound plate containing controls (e.g. DMSO or blank). The compound and enzyme mixture was incubated for 15 min at rt, then 10 μL of 10× substrate and co-factors in Buffer A were added to the test well to make a final concentration of 1 μM NAM, 100 μM 5-Phospho-D-ribose 1-diphosphate (PRPP), and 2.5 mM Adenosine 5′-triphosphate (ATP). The reaction was allowed to proceed for 30 min at rt, then was quenched with the addition of 11 μL of a solution of formic acid and L-Cystathionine to make a final concentration of 1% formic acid and 10 μM L-Cystathionine. Background and signal strength was determined by addition (or non-addition) of a serial dilution of NMN to a pre-quenched enzyme and cofactor mix.

Chain of Nicotinamide phosphoribosyltransferase (P43490 whole entry): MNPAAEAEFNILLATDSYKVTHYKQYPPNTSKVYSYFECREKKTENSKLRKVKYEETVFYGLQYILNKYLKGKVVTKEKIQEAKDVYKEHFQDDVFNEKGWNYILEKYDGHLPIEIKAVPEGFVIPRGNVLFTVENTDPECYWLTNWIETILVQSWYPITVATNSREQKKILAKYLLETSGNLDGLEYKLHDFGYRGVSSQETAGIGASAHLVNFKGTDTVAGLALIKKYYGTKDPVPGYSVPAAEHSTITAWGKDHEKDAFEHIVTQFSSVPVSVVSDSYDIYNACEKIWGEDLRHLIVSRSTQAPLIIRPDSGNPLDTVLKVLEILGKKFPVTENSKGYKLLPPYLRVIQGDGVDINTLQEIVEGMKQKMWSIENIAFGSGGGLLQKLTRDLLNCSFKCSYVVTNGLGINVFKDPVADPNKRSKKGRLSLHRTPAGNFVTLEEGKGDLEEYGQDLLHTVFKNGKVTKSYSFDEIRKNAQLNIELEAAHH

Row | pIC50 | SMILES
1 | 7.32 | CC(C)N1CCN(S(=O)(=O)c2ccc(CNC(=O)c3ccc4nccn4c3)cc2)CC1
2 | 7.36 | CCN1CCC([S+]([O-])c2ccc(CNC(=O)c3ccc4nccn4c3)cc2)CC1 (stereo not drawn)
3 | 6.82 | O=C(NCc1ccc(S(=O)(=O)N2CC3COCC3C2)cc1)c1cnc2[nH]ncc2c1 (mixture of isomers)
